The values that follow are results of earlier work, collected in publication PMC8536644, “Enigmatic mechanism of the N-vinylpyrrolidone hepatocarcinogenicity in the rat” (Archives of Toxicology, 2021).

Structures are written as SMILES.

This data set has as its system CYP2B. The settings on record: ref Waxmann [1999]; Lubet et al. [1985]; Tompkins and Wallac [2007]; cited from earlier work.

Regarding `CCC1(c2ccccc2)C(=O)NC(=O)NC1=O` [phenobarbital], the “Increase of hepatic PROD activities” value was 50 to 140 fold.
